The text below walks through data of patent publication US20170315126A1, “METHOD FOR SCREENING COMPOUND SPECIFICALLY SUPPRESSING FORMATION OF CAVEOLAE OF CANCER CELLS, SCREENING KIT, VECTOR AND TRANSFORMANT TO BE USED IN KIT, AND METHOD FOR SELECTING PATIENT FOR WHOM MOLECULARLY TARGETED DRUG IS INDICATED” (NATIONAL UNIVERSITY CORPORATION NAGOYA INSTITUTE OF …, priority 2014, published 2017).

First the molecules themselves.
B1: human Cavin-1 (other, UniProt Q6NZI2 1-390, looked up)
chain: MEDPTLYIVERPLPGYPDAEAPEPSSAGAQAAEEPSGAGSEELIKSDQVNGVLVLSLLDKIIGAVDQIQLTQAQLEERQAEMEGAVQSIQGELSKLGKAHATTSNTVSKLLEKVRKVSVNVKTVRGSLERQAGQIKKLEVNEAELLRRRNFKVMIYQDEVKLPAKLSISKSLKESEALPEKEGEELGEGERPEEDAAALELSSDEAVEVEEVIEESRAERIKRSGLRRVDDFKKAFSKEKMEKTKVRTRENLEKTRLKTKENLEKTRHTLEKRMNKLGTRLVPAERREKLKTSRDKLRKSFTPDHVVYARSKTAVYKVPPFTFHVKKIREGQVEVLKATEMVEVGADDDEGGAERGEAGDLRRGSSPDVHALLEITEESDAVLVDKSDSD
notes: whole, on cells; Intracellular protein; endogenous in cell extracts or full length expressed from pCMVpuro-Cavin-1 in COS-7 cells; also called endogenous Cavin-1; pCMVpuro-Cavin-1-WT
B2: human Caveolin 1 (other, UniProt Q03135 2-178, looked up)
chain: SGGKYVDSEGHLYTVPIREQGNIYKPNNKAMADELSEKQVYDAHTKEIDLVNRDPKHLNDDVVKIDFEDVIAEPEGTHSFDGIWKASFTTFTVTKYWFYRLLSALFGIPMALIWGIYFAILSFLHIWAVVPCIKSFLIEIQCISRVYSIYVHTVCDPLFEAVGKIFSNVRINLQKEI
notes: whole, on cells; Endogenous in cell extracts or full length expressed from pCMVpuro-CAV1 in COS-7 cells; also called CAV1; endogenous CAV1
B3: Cavin-2 (other, human, UniProt O95810 2-425, looked up)
chain: GEDAAQAEKFQHPGSDMRQEKPSSPSPMPSSTPSPSLNLGNTEEAIRDNSQVNAVTVLTLLDKLVNMLDAVQENQHKMEQRQISLEGSVKGIQNDLTKLSKYQASTSNTVSKLLEKSRKVSAHTRAVKERMDRQCAQVKRLENNHAQLLRRNHFKVLIFQEENEIPASVFVKQPVSGAVEGKEELPDENKSLEETLHTVDLSSDDDLPHDEEALEDSAEEKVEESRAEKIKRSSLKKVDSLKKAFSRQNIEKKMNKLGTKIVSVERREKIKKSLTSNHQKISSGKSSPFKVSPLTFGRKKVREGESHAENETKSEDLPSSEQMPNDQEEESFAEGHSEASLASALVEGEIAEEAAEKATSRGSNSGMDSNIDLTIVEDEEEESVALEQAQKVRYEGSYALTSEEAERSDGDPVQPAVLQVHQTS
notes: whole, on cells; Detected with anti-Cavin-2 (Abcam) in IP-WB of cell extracts

One series has as its system PC-9 and NCI-H1975. Kind of series: Cell proliferation by colorimetry (cell counting kit-8) after siRNA transfection. The format is cell-based, human. Conditions: 120 hours after transfection. Here is the method:
Transfection of the siRNA (20 nM each) was conducted in accordance with the manufacturer's instruction manual using lipofectamine RNAiMAX (manufactured by Invitrogen). Cells were recovered 72 hours after transfection for Western blotting analysis. Cells were also recovered 120 hours after transfection for analysis by colorimetry to measure cell proliferation.
siControl or siROR1, siCavin-1, or siCAV1 was transfected against the PC-9 or NCI-H1975 cell line to investigate the effects of silencing of ROR1, Cavin-1, and CAV1 on cell proliferation. A reaction was conducted using a cell counting kit-8 (Dojindo) 120 hours after transfection, the absorbance was measured by a plate reader, and colorimetry was conducted. Furthermore, this experiment was conducted three separate times, and the average values were graphed.
On the technique in general: Tetrazolium assays rely on reduction of a dye to a coloured formazan, in cell work by metabolically active cells.

The next series has as its system CAV1. Nature of the series: Western blotting of CAV1 expression after siRNA transfection in pulmonary adenocarcinoma cell lines. The format is cell-based, human. Conditions: siRNA 20 nM. Here is the method: Western blotting analysis and IP-WB analysis were conducted by the standard methods using an Immobilon-P filter (manufactured by Millipore Corp.) and an enhanced chemiluminescence system (manufactured by GE Healthcare Inc.). pCMVpuro-Cavin-1-WT was coexpressed with various ROR1 expression constructs such as the wild type (WT), TKΔ473-564 (TKΔ1), TK564-655 (TKΔ2), TKΔ655-746 (TKΔ3), TKΔ473-655 (TKΔ1+×2), TKΔ564-746 (TKΔ2+Δ3), and TKΔ473-746 (TKA1+Δ2+A3) to identify the binding site of ROR1 and Cavin-1. pCMVpuro-CAV1-WT was coexpressed with ROR1 expression constructs such as the wild type (WT), TKΔ473-564 (TKΔ1), TKΔ564-655 (TKΔ2), TKΔ655-746 (TKΔ3), ST1Δ748-782 (ΔST1), PΔ784-851 (ΔP), and ST2Δ853 to 876 (ΔST2) to identify the binding site of ROR1 and CAV1. For these, the cells were recovered 24 hours after transfection by Fugene6 (Promega) using COS-7 cells, and IP-WB analysis was conducted.
Transfection of the siRNA (20 nM each) was conducted in accordance with the manufacturer's instruction manual using lipofectamine RNAiMAX (manufactured by Invitrogen). […] Cells were also recovered 120 hours after transfection for analysis by colorimetry to measure cell proliferation.

The next series relates to PC-9 cells. As to conditions: cited from earlier work.
The test system of a further series is NCI-H1975 cells. As to conditions: cited from earlier work.
Series [1] addresses T1, human ROR1 (receptor tyrosine kinase-like orphan receptor 1) (human, UniProt Q01973 30-937).
T1 construct: whole, on cells; also called endogenous ROR1; ROR1-WT
Nature of the series: IP-WB of octyl glucoside extracts of NCI-H1975 and SK-LU-1 cells.

The series “human Cavin-1” has as its target B1. Kind of series: IP-WB of NCI-H1975 cell extract 24 hours after transfection of siROR1.
Series [2] concerns the target T1, human ROR1 (receptor tyrosine …). Kind of series: IP-WB of ROR1 constructs coexpressed with CAV1 in COS-7 cells. Here is the method:
For these, the cells were recovered 24 hours after transfection by Fugene6 (Promega) using COS-7 cells, and IP-WB analysis was conducted.

For series [3] the target is unchanged. Nature of the series: IP-WB of endogenous proteins in octyl glucoside cell extracts.
The mark [4] stands for this setting: NCI-H1975, 72 hours after transfection.

Read-outs that look alike come from different tables or passages of the source.

T1 sequence (Q01973 30-937): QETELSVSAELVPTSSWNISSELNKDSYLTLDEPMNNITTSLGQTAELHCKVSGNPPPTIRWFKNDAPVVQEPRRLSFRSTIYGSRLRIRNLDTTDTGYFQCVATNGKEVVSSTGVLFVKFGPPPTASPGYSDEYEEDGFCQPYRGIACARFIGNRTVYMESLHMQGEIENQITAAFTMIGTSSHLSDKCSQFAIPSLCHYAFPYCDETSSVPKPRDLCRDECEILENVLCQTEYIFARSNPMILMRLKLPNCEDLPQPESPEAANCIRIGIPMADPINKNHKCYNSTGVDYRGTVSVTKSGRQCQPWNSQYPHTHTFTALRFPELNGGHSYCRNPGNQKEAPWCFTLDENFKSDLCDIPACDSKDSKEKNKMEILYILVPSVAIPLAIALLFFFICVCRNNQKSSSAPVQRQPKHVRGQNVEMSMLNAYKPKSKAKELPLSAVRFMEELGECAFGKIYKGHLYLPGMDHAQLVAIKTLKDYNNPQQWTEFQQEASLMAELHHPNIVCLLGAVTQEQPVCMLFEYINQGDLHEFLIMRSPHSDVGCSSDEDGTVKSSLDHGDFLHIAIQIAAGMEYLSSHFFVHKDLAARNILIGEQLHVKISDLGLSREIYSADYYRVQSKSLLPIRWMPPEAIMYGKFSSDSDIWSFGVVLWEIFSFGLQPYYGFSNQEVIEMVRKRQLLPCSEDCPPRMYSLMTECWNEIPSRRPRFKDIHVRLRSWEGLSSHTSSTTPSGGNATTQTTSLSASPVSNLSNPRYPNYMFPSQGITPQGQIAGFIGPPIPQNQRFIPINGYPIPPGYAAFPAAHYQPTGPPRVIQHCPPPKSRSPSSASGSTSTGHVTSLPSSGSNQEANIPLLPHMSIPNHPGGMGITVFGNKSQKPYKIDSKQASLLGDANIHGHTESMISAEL

Regarding “siCavin-1#1: RNA oligomer for RNAi against human Cavin-1, 5′-CUCCAAGACCGCGGUCUACAA-3′ (SEQ ID No: 18) (listed as RNA, further chemistry not given here)”, the “cell proliferation (colorimetry)” value with PC-9 and NCI-H1975 is “inhibit cell proliferation”. Same read-out and setting: the entry for “siCavin-1#2: RNA oligomer for RNAi against human Cavin-1, 5′-CCCGCCGAGCGGCGCGAGAAA-3′ (SEQ ID No: 19) (listed as RNA, further chemistry not given here)” is “inhibit cell proliferation”. With “siIGF-IR#1: RNA oligomer for RNAi against human IGF-IR, 5′-GGAAUUGCAUGGUAGCCGAUU-3′ (SEQ ID No: 16) (listed as RNA, further chemistry not given here)”, the “CAV1 expression (Western blot)” value in the series with CAV1 (NCI-H358) is “downregulation of CAV1 was also found”; with CAV1 (setting [4]), “downregulate CAV1”. As for `COc1cc2ncnc(Nc3ccc(F)c(Cl)c3)c2cc1OCCCN1CCOCC1` [gefitinib, Gefitinib], the “sensitivity of cells to EGFR-TKI” value is on record as “sensitive” in the series with PC-9 cells (PC-9, no ligand); “resistance” with PC-9 cells (PC-9 in the presence of HGF); “resistance” with NCI-H1975 cells (NCI-H1975 (EGFR T790M double mutation), no ligand). For `CC#CC(=O)Nc1ccc2ncnc(Nc3cccc(Br)c3)c2c1` [CL-387, 785], the “sensitivity of cells to EGFR-TKI” value in the series with NCI-H1975 cells (NCI-H1975 in the presence of HGF) is “resistance”.

Turning to “siIGF-IR#2: RNA oligomer for RNAi against human IGF-IR, 5′-CUGACUACAGGGAUCUCAUUU-3′ (SEQ ID No: 17) (listed as RNA, further chemistry not given here)”, the “CAV1 expression (Western blot)” value in the series with CAV1 (NCI-H358) is on record as “downregulation of CAV1 was also found”; in the series with CAV1 (setting [4]), “downregulate CAV1”. B1: the binding result in series [1] is on record as “binds”. B2: the binding result (with human Cavin-1; in series [2]) was “binds” in each case.

Consider B3, for which the binding result in series [3] is on record as “no binding”.
